The values below are quoted from earlier work in US20090186859A1, “DIAZENIUMDIOLATED NON-STEROIDAL ANTI-INFLAMMATORY DRUGS, COMPOSITIONS THEREOF, AND RELATED METHODS” (THE UNITED STATES OF AMERICA, AS REPRESENTED BY THE SEC., …, priority 2006, published 2009).

One data set has as its system intestinal tumorigenesis. Particulars: APC (DELTA 716) mice.
The conditions of data set [1]: long-term administration to animals.
The test system of a further data set is colon polyp formation. The settings on record: those at high risk, including those already treated for colorectal cancer.
Data set [2] has as its system hormone-positive tumors (estrogen receptor (ER) or progesterone receptor (PR)-positive). The settings on record: women who took aspirin seven or more times a week vs women who did not take it.
For another data set, the system named is colon carcinogenesis. The settings on record: AOM-treated rat model.
In a further data set the test system is tumor. The settings on record: APC(Min)+ mouse model.
For data set [3], the system named is colonic aberrant crypt foci. The settings on record: male F344 rats.

On to `CS(=O)(=O)c1ccc(C2=C(c3ccc(F)c(F)c3)C(=O)OC2)cc1` [MF-Tricyclic], for which, in the data set with intestinal tumorigenesis, the intestinal tumorigenesis result is on record as “blocks intestinal tumorigenesis”. For `O=NN1CCC[C@H]1C(=O)O` [N-nitrosoproline], the tumorigenicity result in data set [1] is on record as “none of these studies showed it to be tumorigenic”. Turning to `CC(=O)Oc1ccccc1C(=O)O` [aspirin, acetylsalicylic acid], the colon polyp formation result in the data set on colon polyp formation was “significantly reduce colon polyp formation”. In data set [2], the “lower risk of developing hormone-positive tumors” value is 26%. Besides, in the data set on colon carcinogenesis, the “inhibition of colon carcinogenesis” value is listed as “effectively inhibit colon carcinogenesis”. As for `CC(C(=O)O)c1ccc(-c2ccccc2)c(F)c1` (stereo not drawn) [flurbiprofen], the anti-tumor effects result in the data set with tumor is reported as “demonstrated anti-tumor effects”. For the compound `CC(C)Cc1ccc(C(C)C(=O)O)cc1` (stereo not drawn) [ibuprofen], the “inhibition of colon carcinogenesis” value in the data set with colon carcinogenesis is given as “effectively inhibit colon carcinogenesis”. With `COc1ccc2c(c1)c(CC(=O)O)c(C)n2C(=O)c1ccc(Cl)cc1` [indomethacin], the “inhibition of colon carcinogenesis” value in the data set with colon carcinogenesis is listed as “effectively inhibit colon carcinogenesis”.

With `COc1ccc2cc(CCC(C)=O)ccc2c1` [nabumetone], the “formation of colonic aberrant crypt foci” value in data set [3] was “inhibit formation of colonic aberrant crypt foci”. Take `CS(=O)(=O)Nc1ccc([N+](=O)[O-])cc1Oc1ccccc1` [nemisulide]: in data set [3], the “formation of colonic aberrant crypt foci” value was “inhibit formation of colonic aberrant crypt foci”. Take `CN1C(C(=O)Nc2ccccn2)=C(O)c2ccccc2S1(=O)=O` [piroxicam]: the “inhibition of colon carcinogenesis” value in the data set on colon carcinogenesis is listed as “effectively inhibit colon carcinogenesis”. On to `CC1=C(CC(=O)O)c2cc(F)ccc2/C1=C\c1ccc([S+](C)[O-])cc1` (stereo not drawn) [sulindac], for which the “inhibition of colon carcinogenesis” value with colon carcinogenesis was “effectively inhibit colon carcinogenesis”.
